Read-outs that look alike come from different tables or passages of the source.
Test system: HBV rcDNA
Test: HepDE19 assay with bDNA quantitation of HBV rcDNA
Format: cell-based, hepatitis B virus
Outline: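 Compounds, top concentration 25 μM in 8-point duplicate series, were applied to Tet-free HepDE19 cultures for 7 days. Branched-DNA quantitation of HBV rcDNA against untreated wells gave EC50 and EC90 by 4-parameter fit. Viability (CC50) came from ATP luminescence on parallel plates incubated 4 days.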

[1] = HepDE19 assay, inhibition of formation of relaxed circular DNA (rcDNA), bDNA quantitation, read-out: DE-19bDNA EC50
[2] = Hepatitis B virus, HepDE19, HepDE19 assay, inhibition of formation of rcDNA, read-out: DE-19bDNA EC50
[3] = HepDE19 assay, inhibition of formation of rcDNA, read-out: DE-19bDNA EC50
[4] = read-out: DE-19bDNA EC50, HepDE19 assay, inhibition of formation of rcDNA
[5] = Hepatitis B virus, HepDE19, HepDE19 assay, inhibition of formation of relaxed circular DNA (rcDNA), bDNA quantitation, read-out: DE-19bDNA EC50
[6] = read-out: DE-19bDNA EC50, HepDE19 assay, inhibition of formation of relaxed circular DNA (rcDNA), bDNA quantitation

CC(c1c[nH]c(=O)c2ccccc12)N(Cc1ccncc1)C(=O)Nc1ccc(F)c(Cl)c1 (single isomer, unassigned) [Compound 308, 3-(3-Chloro-4-fluorophenyl)-1-(1-(1-oxo-1,2-dihydroisoquinolin-4-yl)ethyl)-1-(pyridin-4-ylmethyl) urea]
EC50 [1]: 0.13 µM

CC(c1c[nH]c(=O)c2ccccc12)N(Cc1ccccn1)C(=O)Nc1ccc(F)c(Cl)c1 (single isomer, unassigned) [Compound 305, 3-(3-Chloro-4-fluorophenyl)-1-(1-(1-oxo-1,2-dihydroisoquinolin-4-yl)ethyl)-1-(pyridin-2-ylmethyl) urea]
EC50 [1]: 0.59 µM

CC(c1cn(CC(F)(F)F)c(=O)c2ccccc12)N(C)C(=O)Nc1ccc(F)c(Cl)c1 (racemic) [Compound 228, 3-(3-Chloro-4-fluorophenyl)-1-methyl-1-(1-(1-oxo-2-(2,2,2-trifluoroethyl)-1,2-dihydroisoquinolin-4-yl)ethyl)urea]
EC50 [2]: 0.78 µM

CCCN(C(=O)Nc1ccc(F)c(Cl)c1)[C@H](C)c1c[nH]c(=O)c2ccccc12 [Compound 35, (R)-3-(3-Chloro-4-fluorophenyl)-1-(1-(1-oxo-1,2-dihydroisoquinolin-4-yl)ethyl)-1-propylurea]
EC50 [2]: 0.01 µM

C[C@H](c1c[nH]c(=O)c2ccccc12)N(C)C(=O)Nc1ccc(F)c(C#N)c1 [Compound 98, (R)-3-(3-Cyano-4-fluorophenyl)-1-methyl-1-(1-(1-oxo-1,2-dihydroisoquinolin-4-yl)ethyl)urea]
EC50 (Hepatitis B virus, HepDE19, read-out: DE-19bDNA EC50 (μM), HepDE19 assay, inhibition of formation of rcDNA): 0.16 µM

CC(C)N(Cc1c[nH]c(=O)c2ccccc12)C(=O)Nc1ccc(F)c(Cl)c1 [Compound 26, 3-(3-Chloro-4-fluorophenyl)-1-isopropyl-1-((1-oxo-1,2-dihydroisoquinolin-4-yl)methyl)urea]
EC50 [2]: 0.43 µM

CCN(C(=O)Nc1ccc(F)c(Cl)c1)C(C)c1c[nH]c(=O)c2cnccc12 (single isomer, unassigned) [Compound 151, 3-(3-Chloro-4-fluorophenyl)-1-ethyl-1-(1-(1-oxo-1,2-dihydro-2,7-naphthyridin-4-yl)ethyl)urea]
EC50 [3]: 2 µM

CC(c1c[nH]c(=O)c2ccccc12)N(Cc1cncs1)C(=O)Nc1ccc(F)c(Cl)c1 (single isomer, unassigned) [Compound 323, 3-(3-Chloro-4-fluorophenyl)-1-(1-(1-oxo-1,2-dihydroisoquinolin-4-yl)ethyl)-1-(thiazol-5-ylmethyl)urea]
EC50 [1]: 0.085 µM

CC(c1c[nH]c(=O)c2ccccc12)N(CC[C@H](C)O)C(=O)Nc1ccc(F)c(Cl)c1 (single isomer, unassigned) [Compound 214]
EC50 [4]: 0.047 µM

CC(c1c[nH]c(=O)c2ccccc12)N(C[C@@H](C)O)C(=O)Nc1ccc(F)c(Cl)c1 (single isomer, unassigned) [Compound 215]
EC50 [3]: 23 µM

CC(c1cn(C(C)C)c(=O)c2ccccc12)N(C)C(=O)Nc1ccc(F)c(Cl)c1 (single isomer, unassigned) [Compound 187, 3-(3-Chloro-4-fluorophenyl)-1-(1-(2-isopropyl-1-oxo-1,2-dihydroisoquinolin-4-yl)ethyl)-1-methylurea]
EC50 [3]: 0.14 µM

CC(c1c[nH]c(=O)c2ccccc12)N(CC(CO)CO)C(=O)Nc1ccc(F)c(Cl)c1 (single isomer, unassigned) [Compound 284, 3-(3-Chloro-4-fluorophenyl)-1-(3-hydroxy-2-(hydroxymethyl)propyl)-1-(1-(1-oxo-1,2-dihydroisoquinolin-4-yl)ethyl)urea]
EC50 [5]: 0.092 µM

CC(c1c[nH]c(=O)c2ccccc12)N(CCC(=O)N(C)C)C(=O)Nc1ccc(F)c(Cl)c1 (single isomer, unassigned) [Compound 105, 3-(3-(3-Chloro-4-fluorophenyl)-1-(1-(1-oxo-1,2-dihydroisoquinolin-4-yl)ethyl)ureido)-N,N-dimethylpropanamide]
EC50 [3]: 3.4 µM

CC(C)CN(C(=O)Nc1ccc(F)cc1)C(C)c1c[nH]c(=O)c2cc(F)c(F)cc12 (single isomer, unassigned) [Compound 288, 1-(1-(6,7-Difluoro-1-oxo-1,2-dihydroisoquinolin-4-yl)ethyl)-3-(4-fluorophenyl)-1-isobutylurea]
EC50 [1]: 0.004 µM

CC(c1cn(C)c(=O)c2c(F)c(F)ccc12)N(C)C(=O)Nc1ccc(F)c(Cl)c1 (single isomer, unassigned) [Compound 333, 3-(3-Chloro-4-fluorophenyl)-1-(1-(7,8-difluoro-2-methyl-1-oxo-1,2-dihydroisoquinolin-4-yl)ethyl)-1-methylurea]
EC50 [1]: 0.013 µM

CCN(Cc1cnc(OCCO)c2ccccc12)C(=O)Nc1ccc(F)c(Cl)c1 [Compound 29, 3-(3-Chloro-4-fluorophenyl)-1-ethyl-1-((1-(2-hydroxyethoxy)isoquinolin-4-yl)methyl)urea]
EC50 [2]: 4.2 µM

CC(c1c[nH]c(=O)c2c(F)c(F)ccc12)N(C)C(=O)Nc1cccc(F)c1 (single isomer, unassigned) [Compound 456, 1-(1-(7,8-Difluoro-1-oxo-1,2-dihydroisoquinolin-4-yl)ethyl)-3-(3-fluorophenyl)-1-methylurea]
EC50 [6]: 0.051 µM

CC(c1c[nH]c(=O)c2c(F)c(F)ccc12)N(C)C(=O)Nc1ccc(F)c(Cl)c1 (single isomer, unassigned) [Compound 330, 3-(3-Chloro-4-fluorophenyl)-1-(1-(7,8-difluoro-1-oxo-1,2-dihydroisoquinolin-4-yl)ethyl)-1-methylurea]
EC50 [1]: 0.99 µM

CC(c1c[nH]c(=O)c2c(F)c(F)ccc12)N(C)C(=O)Nc1ccc(F)c(C(F)F)c1 (single isomer, unassigned) [Compound 504, 1-(1-(7,8-Difluoro-1-oxo-1,2-dihydroisoquinolin-4-yl)ethyl)-3-(3-(difluoromethyl)-4-fluorophenyl)-1-methylurea]
EC50 [1]: 0.015 µM

CCN(C(=O)Nc1ccc(F)c(Cl)c1)C(c1ccccc1)c1cnc(OC)c2ccccc12 (single isomer, unassigned) [Compound 59, 3-(3-Chloro-4-fluorophenyl)-1-ethyl-1-((1-methoxyisoquinolin-4-yl)(phenyl)methyl)urea]
EC50 [3]: 22 µM

CC(c1cn(C)c(=O)c2c(F)c(F)ccc12)N(C)C(=O)Nc1ccc(F)c(Cl)c1 (single isomer, unassigned) [Compound 332, 3-(3-Chloro-4-fluorophenyl)-1-(1-(7,8-difluoro-2-methyl-1-oxo-1,2-dihydroisoquinolin-4-yl)ethyl)-1-methylurea]
EC50 [1]: 3.7 µM

COCCN(C(=O)Nc1ccc(F)c(Cl)c1)C(C)c1c[nH]c(=O)c2ccccc12 (single isomer, unassigned) [Compound 65, 3-(3-Chloro-4-fluorophenyl)-1-(2-methoxyethyl)-1-(1-(1-oxo-1,2-dihydroisoquinolin-4-yl)ethyl)urea]
EC50 [4]: 10 µM

CC(c1c[nH]c(=O)c2c(F)c(F)ccc12)N(CCCO)C(=O)Nc1ccc(F)c(Cl)c1 (single isomer, unassigned) [Compound 334, 3-(3-Chloro-4-fluorophenyl)-1-(1-(7,8-difluoro-1-oxo-1,2-dihydroisoquinolin-4-yl)ethyl)-1-(3-hydroxypropyl)urea]
EC50 [1]: 2 µM

CC(c1c[nH]c(=O)c2c(F)c(F)ccc12)N(C)C(=O)NCc1ccc(F)cc1 (single isomer, unassigned) [Compound 492, 1-(1-(7,8-Difluoro-1-oxo-1,2-dihydroisoquinolin-4-yl)ethyl)-3-(4-fluorobenzyl)-1-methylurea]
EC50 [1]: 0.84 µM

CCC(c1c[nH]c(=O)c2ccccc12)N(CC)C(=O)Nc1ccc(F)c(Cl)c1 (single isomer, unassigned) [Compound 39, 3-(3-Chloro-4-fluorophenyl)-1-ethyl-1-(1-(1-oxo-1,2-dihydroisoquinolin-4-yl)propyl)urea]
EC50 [4]: 14 µM

CCOCCN(C(=O)Nc1ccc(F)c(Cl)c1)C(C)c1c[nH]c(=O)c2ccccc12 (single isomer, unassigned) [Compound 110, 3-(3-Chloro-4-fluorophenyl)-1-(2-ethoxyethyl)-1-(1-(1-oxo-1,2-dihydroisoquinolin-4-yl)ethyl)urea]
EC50 [4]: 0.17 µM

CC(C)CN(C(=O)Nc1ccc(F)cc1)C(C)c1cnc(-n2cncn2)c2ccccc12 (racemic) [Compound 301, 1-(1-(1-(1H-1,2,4-Triazol-1-yl)isoquinolin-4-yl)ethyl)-3-(4-fluorophenyl)-1-isobutylurea]
EC50 [5]: 0.051 µM

CN(C(=O)Nc1ccc(F)c(Cl)c1)C(CO)c1c[nH]c(=O)c2ccccc12 (single isomer, unassigned) [Compound 380, 3-(3-Chloro-4-fluorophenyl)-1-(2-hydroxy-1-(1-oxo-1,2-dihydroisoquinolin-4-yl)ethyl)-1-methylurea]
EC50 [6]: 17 µM

CC(c1cnc(OCc2nc[nH]n2)c2cc(F)c(F)cc12)N(CCCO)C(=O)Nc1ccc(F)c(Cl)c1 (single isomer, unassigned) [Compound 365, 1-(1-(1-((1H-1,2,4-Triazol-3-yl)methoxy)-6,7-difluoroisoquinolin-4-yl)ethyl)-3-(3-chloro-4-fluorophenyl)-1-(3-hydroxypropyl)urea]
EC50 [1]: 0.009 µM

CC(c1cnc(N(C)C)c2ccccc12)N(C)C(=O)Nc1ccc(F)c(Cl)c1 (single isomer, unassigned) [Compound 233, 3-(3-Chloro-4-fluorophenyl)-1-(1-(1-(dimethylamino)isoquinolin-4-yl)ethyl)-1-methylurea]
EC50 [3]: 14 µM
